Earlier results, collected in patent US8981059B2, “Platelet aggregation inducing substance” (JNC Corporation, priority 2006, dated 2015).

System: platelets
Settings: as disclosed in the non-patent documents

-(Gly-Pro-Hyp)10- [polypeptide -(Gly-Pro-Hyp)10-]
platelet aggregation inducing activity: low
